Results taken from ChEMBL document CHEMBL1201862, “PubChem BioAssay data set” (2004).
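Briefly, cells in 96-well plates were exposed to five compound concentrations for 48 h, and endpoints were estimated by linear interpolation. Abbreviation: GI50, concentration required for 50% inhibition of growth.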 Activity calls are given as the source filed them. Cut-off read from the data, not from the text of the source: active = GI50 up to about 1.1 µM and inactive = higher.

Assays:
Experiment in all cases: NCI-60 cell line screen, 48 h
MOLT-4 = test system: MOLT-4
IGROV-1 = test system: IGROV-1
NCI-H460 = test system: NCI-H460
Malme-3M = test system: Malme-3M
786-0 = test system: 786-0
TK-10 = test system: TK-10
U-251 = test system: U-251
SF-295 = test system: SF-295
T47D = test system: T47D
COLO 205 = test system: COLO 205
HOP-92 = test system: HOP-92
MDA-N = test system: MDA-N
HCC 2998 = test system: HCC 2998
A498 = test system: A498
UACC-62 = test system: UACC-62
SNB-75 = test system: SNB-75
SK-OV-3 = test system: SK-OV-3
UACC-257 = test system: UACC-257
RXF 393 = test system: RXF 393
SF-268 = test system: SF-268

With `COC1=C(OC)C23CCc4ccc(OC)c(O)c4C2(CCN3)CC1=O` (stereo not given) the GI50 (MOLT-4) was > 100 µM (inactive), the GI50 (IGROV-1) was > 100 µM (inactive) and the GI50 (NCI-H460) was > 100 µM (inactive). For the same compound, the GI50 (Malme-3M) was > 100 µM (inactive), the GI50 (786-0) was > 100 µM (inactive) and the GI50 (TK-10) was > 100 µM (inactive). For the same compound, the GI50 (U-251) was > 100 µM (inactive), the GI50 (SF-295) was > 100 µM (inactive) and the GI50 (T47D) was > 100 µM (inactive). For the same compound, the GI50 (COLO 205) was > 100 µM (inactive), the GI50 (HOP-92) was > 100 µM (inactive) and the GI50 (MDA-N) was > 100 µM (inactive). For the same compound, the GI50 (HCC 2998) was > 100 µM (inactive), the GI50 (A498) was > 100 µM (inactive) and the GI50 (UACC-62) was > 100 µM (inactive). For the same compound, the GI50 (SNB-75) was > 100 µM (inactive), the GI50 (SK-OV-3) was > 100 µM (inactive) and the GI50 (UACC-257) was > 100 µM (inactive). The GI50 (RXF 393) was > 100 µM (inactive) and the GI50 (SF-268) was > 100 µM (inactive).
With `COC(=O)C1C/C(=C/N(C)C)C(=S)N1` (stereo not given) the GI50 (MOLT-4) was > 100 µM (inactive), the GI50 (IGROV-1) was > 100 µM (inactive) and the GI50 (NCI-H460) was 11.6 µM (inactive). For the same compound, the GI50 (Malme-3M) was > 100 µM (inactive), the GI50 (786-0) was > 100 µM (inactive) and the GI50 (TK-10) was > 100 µM (inactive). The GI50 (U-251) was > 100 µM (inactive), the GI50 (SF-295) was > 100 µM (inactive) and the GI50 (T47D) was > 100 µM (inactive). The GI50 (COLO 205) was > 100 µM (inactive), the GI50 (HOP-92) was 54.1 µM (inactive) and the GI50 (MDA-N) was > 100 µM (inactive). For the same compound, the GI50 (HCC 2998) was > 100 µM (inactive), the GI50 (A498) was > 100 µM (inactive) and the GI50 (UACC-62) was > 100 µM (inactive). For the same compound, the GI50 (SNB-75) was > 100 µM (inactive), the GI50 (SK-OV-3) was > 100 µM (inactive) and the GI50 (UACC-257) was > 100 µM (inactive). For the same compound, the GI50 (RXF 393) was > 100 µM (inactive) and the GI50 (SF-268) was > 100 µM (inactive).
In the case of `COc1cccc(CCN2CCN(CCCc3ccccc3)CC2)c1`, the GI50 (MOLT-4) is reported as 92.3 µM (inactive), the GI50 (IGROV-1) is reported as > 100 µM (inactive) and the GI50 (NCI-H460) is reported as 78 µM (inactive). The GI50 (Malme-3M) was 55.5 µM (inactive), the GI50 (786-0) was 63.8 µM (inactive) and the GI50 (TK-10) was > 100 µM (inactive). For the same compound, the GI50 (U-251) was > 100 µM (inactive), the GI50 (SF-295) was 43 µM (inactive) and the GI50 (T47D) was 43.6 µM (inactive). For the same compound, the GI50 (COLO 205) was 21.1 µM (inactive), the GI50 (HOP-92) was 8.41 µM (inactive) and the GI50 (MDA-N) was > 100 µM (inactive). The GI50 (HCC 2998) was 58.3 µM (inactive), the GI50 (A498) was 61 µM (inactive) and the GI50 (UACC-62) was > 100 µM (inactive). The GI50 (SNB-75) was 63.1 µM (inactive), the GI50 (SK-OV-3) was 88.1 µM (inactive) and the GI50 (UACC-257) was > 100 µM (inactive). The GI50 (RXF 393) was 71 µM (inactive) and the GI50 (SF-268) was > 100 µM (inactive).
`O=[N+]([O-])c1ccc(C(Nc2ccccc2)c2ccc3cccnc3c2O)cc1` (stereo not given) was tested, and the GI50 (MOLT-4) was 0.423 µM (active), the GI50 (IGROV-1) was 10.6 µM (inactive) and the GI50 (NCI-H460) was 3.24 µM (inactive). The GI50 (Malme-3M) was 14.7 µM (inactive), the GI50 (786-0) was 4.37 µM (inactive) and the GI50 (TK-10) was 8.49 µM (inactive). The GI50 (U-251) was 3.55 µM (inactive), the GI50 (SF-295) was 4.37 µM (inactive) and the GI50 (T47D) was 5.25 µM (inactive). For the same compound, the GI50 (COLO 205) was 12.2 µM (inactive), the GI50 (HOP-92) was 7.87 µM (inactive) and the GI50 (MDA-N) was 23.7 µM (inactive). For the same compound, the GI50 (HCC 2998) was 12.9 µM (inactive), the GI50 (A498) was 24.1 µM (inactive) and the GI50 (UACC-62) was 12.9 µM (inactive). The GI50 (SNB-75) was 6.67 µM (inactive), the GI50 (SK-OV-3) was 23.8 µM (inactive) and the GI50 (UACC-257) was 13.8 µM (inactive). The GI50 (RXF 393) was 5.15 µM (inactive) and the GI50 (SF-268) was 4.46 µM (inactive).
